What all share (assay type): cell-based
For assay [1], the system named is monkey meibomian gland epithelial cells. Put plainly: Effect on cell number increase in meibomian gland epithelial cells (Experimental Example 3, Cell Counting Kit-8). The following applies: medium renewed every 48 hr (3 x 48 hr), relative to non-addition group = 100%, mean ± SD, N = 5 or 10. The text has this: An eyelid of monkey isolated and stored in D-PBS was transferred to a clean bench, and cell preparation was aseptically performed as follows.
The isolated eyelid was immersed in 80% ethanol for 30 sec, washed three times with D-PBS added with 1% penicillin-streptomycin (Invitrogen), and transferred to a minimum essential medium (MEM; Invitrogen). The adipose tissue and muscular tissue surrounding the meibomian glandular tissue of the eyelid were removed under a stereomicroscope. They were transferred to MEM containing 0.3 U/mL collagenase A (Roche Diagnostics) and 2.4 U/mL dispase II (Roche Diagnostics), and shaken at 37° C. for 4 hr and at 4° C. overnight. The enzyme-treated tissue was set under a stereomicroscope, and the eyelash and eyelid connective tissue were removed to isolate the meibomian glandular tissue. Trypsin-EDTA (4 mL, Invitrogen) was added to the isolated glandular tissue, and the mixture was incubated at 37° C. for 10 min. After incubation, MEM (5 mL) containing 10% FBS (Invitrogen) was added thereto to stop the enzyme reaction, and the tissue constituting cells were dispersed by repeated suction and discharge of the mixture 5 times using an injection syringe equipped with a 21 G injection needle. The cell dispersion was passed through 100 μm and 40 μm nylon filters (Cell Strainer; Falcon), and cell mass and the like contained therein which could not be treated with the enzyme were removed. The cell suspension passed through the filters was collected in a centrifuge tube (50 mL) and centrifuged at room temperature, 1,500 rpm for 5 min. To the cell layers containing the object cells obtained by the centrifugation was added 80 μL of D-PBS containing 0.5% bovine serum albumin (BSA; Sigma-Aldrich), and the cells were sufficiently suspended therein. Anti-Fibroblast Microbeads (Militenyi Biotec, 20 μL) was added thereto, and the mixture was left standing at room temperature for 30 min. After completion of the reaction with an antibody, 2 mL of D-PBS containing 0.5% BSA was added thereto, and the mixture was centrifuged again at room temperature, 1,500 rpm for 5 min. To the cell layers containing the object cells obtained by the centrifugation was added 1 mL of D-PBS containing 0.5% BSA, and the cells were sufficiently suspended therein. The suspension was added dropwise to LD column (Militenyi Biotec) equilibrated in advance with a column washing solution (D-PBS containing 2 mM EDTA (DOJINDO LABORATORIES) and 0.5% BSA). Then, 2 mL of the column washing solution was added dropwise to the LD column. […] The cells collected in the centrifuge tube were centrifuged at room temperature, 1,500 rpm for 5 min, and the supernatant was removed. The sediment was suspended in Defined Keratinocyte Serum Free Medium (5 mL), centrifuged at room temperature, 1,500 rpm for 5 min, and removed the supernatant. Again, the residue was suspended in DK-SFM (3 mL), centrifuged at room temperature and 1,500 rpm for 5 min, and the supernatant was removed. The cells were suspended in DK-SFM (2 mL), and seeded on a 6 well multi-well plate for cell culture, which had been treated with collagen. The seeded cells were cultured in Defined keratinocyte-Serum Free Medium (DK-SFM; Invitrogen, attached Supplement was added as instructed in the preparation protocol), cultured in an incubator (SANYO) set to 37° C., 5% CO2, 95% air, 100% humidity, and the culture medium was exchanged with a new one every 48 hr until the cells became subconfluent.
As a test substance, compound A, [4-[3-[2-(4-trifluoromethyl)phenyl-4-isopropyl-5-thiazolyl]propionyl]-2-methylphenoxy]acetic acid (hereinafter to be referred to as compound B) or [4-[3-[2-(2-hydroxy-4-chlorophenyl)-5-isopropyl-4-oxazolyl]propionyl]-2-methylphenoxy]acetic acid (hereinafter to be referred to as compound C) was used. […]
For orientation: Tetrazolium assays rely on reduction of a dye to a coloured formazan, in cell work by metabolically active cells.

Assay [2] concerns Normal human corneal epithelial cells. Put plainly: Effect on increase of cell number of normal human corneal epithelial cells (Experimental Example 4, Cell Counting Kit-8). The following applies: for effect on cell number of normal human corneal epithelial cells (in words): 0.01-1 μM, conclusion of the test; for cell number increase rate: relative to non-addition group = 100%, mean ± SD, N = 4. The protocol:
(§1) Normal human corneal epithelial cells (KURABO) were used.
As a test substance, compound B or compound C was used. Compound B and compound C were each dissolved in ethanol (Wako Pure Chemical Industries, Ltd.) to a concentration 200-fold of the final concentration in a culture medium, and the solution was stored at −80° C. until immediately before use.
As a cell culture medium for consideration of the cell number-increasing effect by compound B and compound C, a culture medium (basal medium) obtained by adding insulin, hydrocortisone and transferrin contained in HCGS growth additive set (KURABO) to EpiLife (KURABO) was used.
Normal human corneal epithelial cells cryopreserved in liquid nitrogen were thawed and the cell number was counted. The total amount thereof was transferred to EpiLife added with all of the HCGS growth additive set (insulin, epidermal growth factor mEGF derived from mouse, hydrocortisone, transferrin, bovine brain hypophysis extract) (4 mL, complete medium), and suspended well therein. The cell suspension was seeded on a fibronectin-coated 24 well plate (Becton Dickinson) at a cell number of 2×10^4 cells/500 μL/well (1×10^4 cells/cm^2 since bottom area was 2 cm^2). After completion of cell seeding, the culture plate was incubated in an incubator set to 37° C., 5% CO2, 95% air and 100% humidity for 24 hr, and the culture medium was changed to 400 μL of the basal medium (EpiLife added with insulin, hydrocortisone and transferrin from HCGS growth additives). After 24 hr thereafter, the culture medium was changed to the following culture medium (each 400 μL). • [1] basal medium alone (non-addition group) • [2] basal medium+mEGF (final concentration: 1 ng/mL; positive control group) • [3] basal medium+compound B (final concentration: 0.01 μM, 0.1 μM, 1 μM; compound B addition group) • [4] basal medium+compound C (final concentration: 0.01 μM, 0.1 μM, 1 μM; compound C addition group)
(§2) Ethanol (5 μL) was added to 1 mL each of culture media and [2] to uniformly set the ethanol concentration of all culture media to 0.5%.
(§3) After 24 hr from the start of the stimulation with compound B or compound C, the culture supernatant was removed from each well, and a basal medium added with 10% Cell Counting Kit-8 (DOJINDO) was dispensed to each well by 200 μL. After dispensing, the culture plate was transferred to an incubator set to 37° C., 5% CO2, 95% air and 100% humidity and incubated for 2 hr. The supernatant (100 μL) was transferred to a 96 well culture plate for tissue culture (Corning), and the absorbance of each well at 450 nm was measured with a microplate reader (Dainippon Sumitomo Pharma Co., Ltd.), and used as an index of cell number increase.
The values of the positive control group and the compound B or compound C addition group were calculated based on the average absorbance of the non-addition group as 100%, and the non-addition group was compared with the compound B or compound C addition group and positive control group according to the Dunnett multiple comparison test (one-tailed). A critical value of less than 5% as a result of the test was judged as significant.

The test system is the same in assay [3]. Put plainly: Effect on increase of cell number of normal human corneal epithelial cells (Experimental Example 1, Cell Counting Kit-8). The following applies: positive control, final concentration 1 ng/mL, 24 hr, relative to non-addition group = 100%, mean ± SD. Here is the method: as §1
As a test substance, [3-[2-[4-isopropyl-2-(4-trifluoromethyl)phenyl-5-thiazolyl]ethyl]-5-methyl-1,2-benzisoxazol-6-yl]oxyacetic acid (hereinafter to be referred to as compound A) was used. Compound A was dissolved in ethanol (Wako Pure Chemical Industries, Ltd.) to a concentration 200-fold of the final concentration in a culture medium, and the solution was stored at −80° C. until immediately before use.
As a cell culture medium for consideration of the cell number-increasing effect by compound A, a culture medium (basal medium) obtained by adding insulin, hydrocortisone and transferrin contained in HCGS growth additive set (KURABO) to EpiLife (KURABO) was used.
Normal human corneal epithelial cells cryopreserved in liquid nitrogen were thawed and the cell number was counted. The total amount thereof was transferred to EpiLife added with all of the HCGS growth additive set (insulin, epidermal growth factor mEGF derived from mouse, hydrocortisone, transferrin, bovine brain hypophysis extract) (4 mL, complete medium), and suspended well therein. The cell suspension was seeded on a fibronectin-coated 24 well plate (Becton Dickinson) at a cell number of 2×10^4 cells/500 μL/well (1×10^4 cells/cm^2 since bottom area was 2 cm^2).
After completion of cell seeding, the culture plate was incubated in an incubator set to 37° C., 5% CO2, 95% air and 100% humidity for 24 hr, and the culture medium was changed to 400 μL of the basal medium (EpiLife added with insulin, hydrocortisone and transferrin from HCGS growth additives).
After 24 hr thereafter, the culture medium was changed to the following culture medium (each 400 μL). • [1] basal medium alone (non-addition group) • [2] basal medium+mEGF (final concentration: 1 ng/mL; positive control group) • [3] basal medium+compound A (final concentration: 0.1 nM, 1 nM, 0.01 μM, 0.1 μM; compound A addition group)
as §2
as §3, with “A,” for “B or compound C,”
The values of the positive control group and the compound A addition group were calculated based on the average absorbance of the non-addition group as 100%, and the non-addition group was compared with the compound A addition group and positive control group according to the Dunnett multiple comparison test (one-tailed). A critical value of less than 5% as a result of the test was judged as significant.

Regarding `Cc1cc(C(=O)CCc2nc(-c3ccc(Cl)cc3O)oc2C(C)C)ccc1OCC(=O)O` [compound C, [4-[3-[2-(2-hydroxy-4-chlorophenyl)-5-isopropyl-4-oxazolyl]propionyl]-2-methylphenoxy]acetic acid], the “cell number increase ratio” value was 179.4 ± 7.5% in assay [1] (10^−6 M), 175.2 ± 7.8% in assay [1] (10^−7 M) and 155.0 ± 11.6% in assay [1] (10^−8 M). The “effect on cell number of normal human corneal epithelial cells (in words)” value in assay [2] is listed as “increase the cell number of normal human corneal epithelial cells”. The “cell number increase rate” value was determined as 260.2 ± 2.5% in assay [2] (10^−6 M, 24 hr stimulation); 247.5 ± 14.1% in assay [2] (10^−7 M, 24 hr stimulation); 243.3 ± 6.6% in assay [2] (10^−8 M, 24 hr stimulation).
Take “mEGF: epidermal growth factor mEGF derived from mouse, from HCGS growth additive set (KURABO); positive control (NSYPGCPSSYDGYCLNGGVCMHIESLDSYTCNCVIGYSGDRCQTRDLRWWELR; UniProt P01132 977-1029, looked up) [reference compound]”: the “cell number increase rate” value in assay [3] is on record as 147.5 ± 47.2%; in assay [2] (positive control, final concentration 1 ng/mL, 24 hr), 232.8 ± 22.5%.
Turning to `Cc1cc(C(=O)CCc2sc(-c3ccc(C(F)(F)F)cc3)nc2C(C)C)ccc1OCC(=O)O` [compound B, [4-[3-[2-(4-trifluoromethyl)phenyl-4-isopropyl-5-thiazolyl]propionyl]-2-methylphenoxy]acetic acid], the “cell number increase ratio” value in assay [1] (10^−6 M) worked out at 158.8 ± 15.2%; in assay [1] (10^−7 M), 174.4 ± 8.9%; in assay [1] (10^−8 M), 155.0 ± 28.0%. Besides, in assay [2], the “effect on cell number of normal human corneal epithelial cells (in words)” value is reported as “increase the cell number of normal human corneal epithelial cells”. For the same compound, the “cell number increase rate” value in assay [2] (10^−6 M, 24 hr stimulation) was determined as 254.3 ± 11.7%; in assay [2] (10^−7 M, 24 hr stimulation), 256.4 ± 11.0%; in assay [2] (10^−8 M, 24 hr stimulation), 252.4 ± 34.7%.

The record behind these values is US8802705B2, “Pharmaceutical containing PPAR delta agonist” (Senju Pharmaceutical Co., Ltd., priority 2007, dated 2014).
